Experimental data published in ChEMBL document CHEMBL2062485, “Structural characterization and antimicrobial evaluation of atractyloside, atractyligenin, and 15-didehydroatractyligenin methyl ester” (2012).

Columns and labels:
Format in all cases: functional
Staphylococcus aureus [1] = assay: Antibacterial activity against Staphylococcus aureus […] by MTT assay
Staphylococcus aureus [2] = assay: Antibacterial activity against floroquinilone-resistant Staphylococcus aureus SA1199B by MTT assay
Staphylococcus aureus [3] = assay: Antibacterial activity against epidemic methicillin-resistant Staphylococcus aureus isolate 15 by MTT assay
Staphylococcus aureus [4] = assay: Antibacterial activity against epidemic methicillin-resistant Staphylococcus aureus isolate 16 by MTT assay

Measured: MIC

C=C1C(=O)[C@@]23CC[C@@H]4[C@H](C(=O)OC)C[C@@H](O)C[C@@]4(C)[C@@H]2CC[C@H]1C3
128 µg/mL: all assays above
